Experimental data reported in PubChem BioAssay (NCI).
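In this assay, cells in 96-well plates receive the compound at five concentrations for 48 hours. Endpoints are linearly interpolated between the surrounding concentrations. The concentration for 50% growth inhibition is given as GI50. TGI: total growth inhibition.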

What was measured:
Experiment in all cases: NCI anticancer screen, dose series, 48 h
[1] = system: 786-0 renal
[2] = system: A498 renal
[3] = system: A549 NSCLC
[4] = system: ACHN renal
[5] = system: BT-549 breast
[6] = system: CAKI-1 renal
[7] = system: CCRF-CEM leukemia
[8] = system: COLO 205 colon
[9] = system: DU-145 prostate
[10] = system: EKVX NSCLC
[11] = system: HCC-2998 colon
[12] = system: HCT-116 colon
[13] = system: HCT-15 colon
[14] = system: HL-60(TB) leukemia
[15] = system: HOP-62 NSCLC
[16] = system: HOP-92 NSCLC
[17] = system: HS 578T breast
[18] = system: HT29 colon
[19] = system: IGROV1 ovarian
[20] = system: K-562 leukemia
[21] = system: KM12 colon
[22] = system: LOX IMVI melanoma
[23] = system: M14 melanoma
[24] = system: MALME-3M melanoma
[25] = system: MCF7 breast
[26] = system: MDA-MB-231 breast
[27] = system: MDA-MB-435
[28] = system: MDA-MB-468 breast
[29] = system: MOLT-4 leukemia
[30] = system: NCI-H226 lung
[31] = system: NCI-H23 lung
[32] = system: NCI-H460 lung
[33] = system: NCI-H522 lung
[34] = system: OVCAR-3 ovarian
[35] = system: OVCAR-4 ovarian
[36] = system: OVCAR-5 ovarian
[37] = system: OVCAR-8 ovarian
[38] = system: PC-3 prostate
[39] = system: RPMI-8226 leukemia
[40] = system: RXF 393 renal
[41] = system: SF-268 CNS
[42] = system: SF-295 CNS
[43] = system: SF-539 CNS
[44] = system: SK-MEL-2 melanoma
[45] = system: SK-MEL-28 melanoma
[46] = system: SK-MEL-5 melanoma
[47] = system: SK-OV-3 ovarian
[48] = system: SN12C renal
[49] = system: SNB-19 CNS
[50] = system: SNB-75 CNS
[51] = system: SR leukemia
[52] = system: SW-620 colon
[53] = system: T-47D breast
[54] = system: TK-10 renal
[55] = system: U251 CNS
[56] = system: UACC-257 melanoma
[57] = system: UACC-62 melanoma
[58] = system: UO-31 renal

SMILES: O=c1[nH]n(C(=S)N/N=C/c2ccccc2Cl)c(=O)c2ccccc12
- GI50 [1]: 4.43 µM
- TGI [1]: 16 µM
- GI50 [2]: 3.66 µM
- TGI [2]: 12.1 µM
- GI50 [3]: 2.93 µM
- TGI [3]: 10.7 µM
- GI50 [4]: 3.64 µM
- TGI [4]: 12.8 µM
- GI50 [5]: 3.11 µM
- TGI [5]: 11.9 µM
- GI50 [6]: 3.7 µM
- TGI [6]: 15.5 µM
- GI50 [7]: 2.29 µM
- TGI [7]: 7.56 µM
- GI50 [8]: 2.82 µM
- TGI [8]: 7.73 µM
- GI50 [9]: 3.84 µM
- TGI [9]: 14.5 µM
- GI50 [10]: 2.73 µM
- TGI [10]: 10.8 µM
- GI50 [11]: 2.27 µM
- TGI [11]: 4.79 µM
- GI50 [12]: 3.44 µM
- TGI [12]: 14.1 µM
- GI50 [13]: 2.24 µM
- TGI [13]: 6.36 µM
- GI50 [14]: 1.65 µM
- TGI [14]: 4.5 µM
- GI50 [15]: 3.14 µM
- TGI [15]: 10.8 µM
- GI50 [16]: 2.41 µM
- TGI [16]: 7.29 µM
- GI50 [17]: 2.65 µM
- TGI [17]: 9.55 µM
- GI50 [18]: 3.96 µM
- TGI [18]: 13.2 µM
- GI50 [19]: 3.42 µM
- TGI [19]: 11.5 µM
- GI50 [20]: 2.62 µM
- TGI [20]: 10.6 µM
- GI50 [21]: 3.34 µM
- TGI [21]: 12.5 µM
- GI50 [22]: 2.87 µM
- TGI [22]: 10.4 µM
- GI50 [23]: 2.96 µM
- TGI [23]: 11.4 µM
- GI50 [24]: 5.64 µM
- TGI [24]: 18.5 µM
- GI50 [25]: 2.4 µM
- TGI [25]: 11.3 µM
- GI50 [26]: 2.99 µM
- TGI [26]: 8.61 µM
- GI50 [27]: 2.88 µM
- TGI [27]: 12.8 µM
- GI50 [28]: 1.83 µM
- TGI [28]: 4.46 µM
- GI50 [29]: 1.82 µM
- TGI [29]: 5.16 µM
- GI50 [30]: 2.88 µM
- TGI [30]: 8.54 µM
- GI50 [31]: 1.97 µM
- TGI [31]: 4.56 µM
- GI50 [32]: 2.11 µM
- TGI [32]: 5.85 µM
- GI50 [33]: 2.06 µM
- TGI [33]: 5.4 µM
- GI50 [34]: 3.36 µM
- TGI [34]: 12.8 µM
- GI50 [35]: 4.46 µM
- TGI [35]: 16.6 µM
- GI50 [36]: 3.56 µM
- TGI [36]: 10.6 µM
- GI50 [37]: 2.08 µM
- TGI [37]: 5.48 µM
- GI50 [38]: 4.89 µM
- TGI [38]: 17.9 µM
- GI50 [39]: 2.44 µM
- TGI [39]: 7.83 µM
- GI50 [40]: 2.58 µM
- TGI [40]: 7.71 µM
- GI50 [41]: 3.36 µM
- TGI [41]: 13.8 µM
- GI50 [42]: 2.48 µM
- TGI [42]: 6.79 µM
- GI50 [43]: 2.56 µM
- TGI [43]: 6.26 µM
- GI50 [44]: 1.85 µM
- TGI [44]: 4.19 µM
- GI50 [45]: 4.6 µM
- TGI [45]: 16.1 µM
- GI50 [46]: 3.03 µM
- TGI [46]: 11.9 µM
- GI50 [47]: 4.82 µM
- TGI [47]: 16.1 µM
- GI50 [48]: 3.01 µM
- TGI [48]: 10.1 µM
- GI50 [49]: 3.87 µM
- TGI [49]: 14.3 µM
- GI50 [50]: 2.08 µM
- TGI [50]: 8.43 µM
- GI50 [51]: 1.86 µM
- TGI [51]: 5.08 µM
- GI50 [52]: 3.01 µM
- TGI [52]: 10.5 µM
- GI50 [53]: 2.55 µM
- TGI [53]: 8.92 µM
- GI50 [54]: 5.05 µM
- TGI [54]: 17.3 µM
- GI50 [55]: 2.87 µM
- TGI [55]: 10.4 µM
- GI50 [56]: 4.1 µM
- TGI [56]: 16.8 µM
- GI50 [57]: 2.91 µM
- TGI [57]: 12.4 µM
- GI50 [58]: 3.78 µM
- TGI [58]: 15 µM

SMILES: CCCCOc1ccc(NC(=O)c2sc3nc(C)ccc3c2N)cc1
- GI50 [1]: 1.86 µM
- TGI [1]: 4.21 µM
- GI50 [2]: 14.9 µM
- TGI [2]: 28.5 µM
- GI50 [3]: 3.22 µM
- TGI [3]: 9.73 µM
- GI50 [4]: 2.72 µM
- TGI [4]: 12.7 µM
- GI50 [5]: 2.56 µM
- TGI [5]: 10.2 µM
- GI50 [6]: 3.47 µM
- TGI [6]: 16.7 µM
- GI50 [7]: 54 µM
- TGI [7]: > 100 µM
- GI50 [8]: 19.3 µM
- TGI [8]: 54.4 µM
- GI50 [9]: 5.29 µM
- TGI [9]: 36.1 µM
- GI50 [10]: 2.17 µM
- TGI [10]: 14.7 µM
- GI50 [11]: 4.73 µM
- TGI [11]: 20.6 µM
- GI50 [12]: 2.28 µM
- TGI [12]: 6.04 µM
- GI50 [13]: 3.87 µM
- TGI [13]: 17.7 µM
- GI50 [14]: 49.9 µM
- TGI [14]: > 100 µM
- GI50 [15]: 10.6 µM
- TGI [15]: 28 µM
- GI50 [16]: 5.71 µM
- TGI [16]: 22.8 µM
- GI50 [17]: 5.97 µM
- TGI [17]: 38.7 µM
- GI50 [18]: 6.83 µM
- TGI [18]: 26.3 µM
- GI50 [19]: 4.1 µM
- TGI [19]: 17.4 µM
- GI50 [20]: 2.85 µM
- TGI [20]: > 100 µM
- GI50 [21]: 3.96 µM
- TGI [21]: 18.5 µM
- GI50 [22]: 2.36 µM
- TGI [22]: 6.68 µM
- GI50 [23]: 12.6 µM
- TGI [23]: 35.2 µM
- GI50 [24]: 5.31 µM
- TGI [24]: 19.4 µM
- GI50 [25]: 3.07 µM
- TGI [25]: 16.4 µM
- GI50 [26]: 2.93 µM
- TGI [26]: 10.6 µM
- GI50 [27]: 4.96 µM
- TGI [27]: 22.1 µM
- GI50 [28]: 1.23 µM
- TGI [28]: 3.29 µM
- GI50 [29]: 7.46 µM
- TGI [29]: > 100 µM
- GI50 [30]: 2.89 µM
- TGI [30]: 18.7 µM
- GI50 [31]: 1.5 µM
- TGI [31]: 3.56 µM
- GI50 [32]: 3.23 µM
- TGI [32]: 10.9 µM
- GI50 [33]: 2.88 µM
- TGI [33]: 15.2 µM
- GI50 [34]: 2.8 µM
- TGI [34]: 8.65 µM
- GI50 [35]: 1.49 µM
- TGI [35]: 5.97 µM
- GI50 [36]: 4.61 µM
- TGI [36]: 28.8 µM
- GI50 [37]: 2.61 µM
- TGI [37]: 6.67 µM
- GI50 [38]: 7.74 µM
- TGI [38]: > 100 µM
- GI50 [39]: 8.14 µM
- TGI [39]: > 100 µM
- GI50 [40]: 2.98 µM
- TGI [40]: 12.9 µM
- GI50 [41]: 6.39 µM
- TGI [41]: 29.9 µM
- GI50 [42]: 2.59 µM
- TGI [42]: 10.3 µM
- GI50 [43]: 1.89 µM
- TGI [43]: 3.77 µM
- GI50 [44]: 8.95 µM
- TGI [44]: 31.4 µM
- GI50 [45]: 12.2 µM
- TGI [45]: 29.8 µM
- GI50 [46]: 2 µM
- TGI [46]: 10.2 µM
- GI50 [47]: 6.36 µM
- TGI [47]: 20 µM
- GI50 [48]: 4.09 µM
- TGI [48]: 22.8 µM
- GI50 [49]: 3.47 µM
- TGI [49]: 13.8 µM
- GI50 [50]: 2.39 µM
- TGI [50]: 9.02 µM
- GI50 [51]: 3.3 µM
- TGI [51]: > 100 µM
- GI50 [52]: 11.4 µM
- TGI [52]: 31 µM
- GI50 [53]: 2.82 µM
- TGI [53]: 25.7 µM
- GI50 [54]: 5.57 µM
- TGI [54]: 20.4 µM
- GI50 [55]: 3.41 µM
- TGI [55]: 11.1 µM
- GI50 [56]: 10 µM
- TGI [56]: 44.6 µM
- GI50 [57]: 6.89 µM
- TGI [57]: 22.9 µM
- GI50 [58]: 2.32 µM
- TGI [58]: 11.2 µM
